The subject of experiment [1] is membrane lipids, fibroblast line L929. As to the kind of experiment: TBARS test, lipid peroxidation after H2O2/Fe2+/Fe3+. Type of experiment: cell-based, murin. To be noted: 0.02 ng/ml, pretreated 16 hours. An excerpt: In order to evaluate membrane changes, we measured lipid peroxidation by in vitro assay of complexes between the products of lipid oxidation and thiobarbituric acid. These complexes are called TBARS (thiobarbituric acid reactive substances) and give the test its name: TBARS Test.
In order to mimic chemical oxidative stress, we treated a fibroblast line (L929) with a complex consisting of hydrogen peroxide (H2O2) and iron (Fe^2+/Fe^3+) thus reconstituting the Fenton reaction which is the source of oxygenated free radicals and particularly the hydroxyl radical (OH°) (D. A Vessey et al. 1992): H2O2+Fe^2+→OH°+OH^−+Fe^3+
The products were evaluated on a murin fibroblast line L929. Cells were pretreated with different concentrations of the product for 16 hours and were then stimulated with the H2O2/Fe^2+/Fe^3+ complex (200 μM−1 mM) for 1 hour. • Stock solutions: 100 mg/ml ethanol, 4° C. • Final solutions: 0.02 ng/ml.
Peroxidation of membrane lipids was analysed by measuring TBARS (Protocol ref. PLN°2, according to Morliere et al, 1991).
[…]. TBARS assays are therefore expressed in pmole/μg of protein. Proteins and TBARS are assayed in the intracellular medium.
Using the TBARS calculation in pmole/μg protein, we calculated the protective efficacy of various products against the oxidation of lipid membranes.
Four separate experiments were carried out. Several compounds were evaluated in the course of these experiments (the test only allows 10 molecules to be evaluated at one time). The compounds were evaluated several times and were chosen as a function of the results obtained in another test which also measured anti-radical activity (assay test for activated oxygen species).
The model used in this experiment (Fenton reaction) triggers considerable lipid peroxidation of the L929 fibroblasts. This massive release of the hydroxyl radical OH° thus generates oxidative stress in the cells, particularly in the membranes. However, in this type of oxidative reaction, the products resulting from lipid peroxidation are internalized in the cells and TBARS are therefore assayed in the intracellular medium.

In experiment [2] the test system is FATP4. As to the kind of experiment: keratinocyte differentiation, real-time RT-PCR of FATP4 transcripts. It is filed as cell-based, human. The note with it: 1 μg/ml, NHK, 48 hours. The method, then:
(§1) Normal human keratinocytes (NHK) proliferate and differentiate in vitro, forming stratified layers which mimic the basal organisation of the skin. Extracellular calcium concentrations in excess of 0.1 mM initiate a cascade of genome and non-genome events which take the keratinocytes from a proliferative phase towards a differentiation phase. Keratinocyte differentiation can then be evaluated by studying the expression of several markers such as keratins 1 and 10, transglutaminase 1, desaturase DES2, involucrine, FATP4 and ABCG1 transporters. We therefore evaluated the effect of certain hydroxyalcene carboxylic acids in an in vitro culture model.
(§2) Normal human keratinocytes are isolated from skin explants. They are cultured in KSFM medium (Gibco) with a low calcium content (0.1 mM) containing 25 μg/ml of BPE (bovine pituitary extract) and […] of EGF (epithelium growth factor). 24 hours after culturing, differentiation is triggered by the addition of calcium (final concentration 1.2 mM). The active ingredients are added or not at the same time as calcium at concentrations of 100 and 1 μg/ml in order to determine whether or not they have a potentialising effect on differentiation. Cells were then analysed 48 hours after the addition of calcium and these products.
(§3) Total RNA was extracted under cold conditions from keratinocytes.
(§4) After reverse transcription of mRNA into cDNA, PCRs were made up in 96 well plates (iCycler quantitative PCR apparatus, BioRad). Expression of transcripts of transglutaminase, desaturase (DES2), ABCG1 and FATP4 were standardized with respect to the expression of reference genes (GAPDH, UBC, HPRT).
For orientation: Real-time PCR tracks product formation cycle by cycle.

For experiment [3], the system named is intracellular AOSs, fibroblast line L929. The experiment is described as follows: in vitro assay of intracellular AOSs (H2DCF-DA probe) after H2O2/iron oxidative stress. It is filed as cell-based, murin. The note with it: pre-incubation 3 h, L929. The source says: We set up an in vitro study model of oxidative stress induced by H2O2/iron as H2O2 generates huge amounts of intracellular AOSs as a result of a chain reaction triggered by oxidation of membrane lipids.
This technique is based on the use of a fluorescent probe, 6-carboxy-2′,7′-dichlorodihydro fluorescein diacetate, di (acetoxymethyl ester) (H2DCF-DA) which once it penetrates into the cell is deacetylated by intracellular esterases and thus forms H2DCF. This product is oxidized by intracellular AOSs into a highly fluorescent compound: 2′,7′-dichlorofluorescein (DCF) (Suematsu M et al., 1996, Free Radicals Practical Approach, Punchard ed. P 83-99).
The materials and methods used for in vitro assay of intracellular AOSs are given below. • a) Cell tool • Cutaneous murin fibroblast cell line L929. • b) Materials • 96 well flat based microplate. • Cytofluor II cytofluorameter: Ref. PERCEPTIVE BIOSYSTEMS. • c) Reagents • Cell culture reagents: • Dulbecco's Modified Eagle Medium as the culture medium (DMEM) • Foetal calf serum • Phosphate buffer PBS pH 7.4 • Trypsin EDTA (1X) Fluorescent probe • 6-carboxy-2′,7′-dichlorodihydrofluorescein diacetate, di(acetoxymethyl ester) (PM.675,43) Cell stimulation products • Hydrogen peroxide (H2O2) 3% Ref. GIFRER (Gifrer Barbezat Laboratory) • Ferrous ammonium sulphate (Fe^2+) • Ferric ammonium sulphate (Fe^3+) • d) Products tested:
For the evaluation of unsaturated fatty hydroxy acid derivatives, the dilutions are prepared in freshly prepared culture medium for a concentration range of 0.02, 0.2, 2 and 20 ng/ml. • e) Protocol. Cell culturing.
Cells from the fibroblast line L929 were cultured in 96-well flat base microplates in 100 μl of DMEM supplemented with 10% foetal calf serum. These were incubated overnight at 37° C. in a humid atmosphere at 5% CO2. The blank plate without cells was evaluated using 6 wells.
Dilutions of the products to be tested and reference molecule were made up in culture medium without foetal calf serum then deposited in 7 wells at a rate of 100 μl per well.
Cells were then incubated for 3 hours at 37° C. in a humid atmosphere at 5% CO2.
Cells were rinsed in PBS 1X at a rate of 100 μl per well. They were then incubated for 30 minutes at 37° C. in a humid atmosphere at 5% CO2 with 50 μl of the H2DCF-DA probe at 5 μM.
After 30 minutes of contact with the probe alone, cells were incubated for 30 minutes at 37° C. in a humid atmosphere at 5% CO2 with the addition of 25 μl of H2O2 at 800 μM and 25 μl of ferrous iron and ferric iron solution at 8 mM in order to obtain final concentrations of 200 μM of H2O2 and 2 mM of ferrous iron and ferric iron.
Cells were then rinsed with PBS 1X at a rate of 100 μl per well then incubated for 30 minutes at 37° C. in a humid atmosphere at 5% CO2 with 100 μl of PBS 1X.
This incubation for 1 h 30 minutes at 37° C. allows intracellular esterases to deacetylate the probe into H2DCF which can be oxidized by the intracellular AOSs into DCF: a fluorescent compound whose formation is proportional to the quantity of intracellular AOSs.
The intensity of fluorescence is read on a cytofluorimeter at λexcitation=485 nm and λemission=530 nm. This reflects the amount of intracellular AOS produced.
The ratio below makes it possible to calculate the % protection against the production of intracellular AOSs for each product concentration tested (because the intensity of fluorescence or IF reflects the release of intracellular AOSs)
• Pre-incubation: 3 h • Number of tests=3 for all compounds. • Number of tests=18 for vit. E

Experiment [4] has as its system ABCG1. As to the kind of experiment: keratinocyte differentiation, real-time RT-PCR of ABCG1 transcripts. It is filed as cell-based, human. To be noted: 1 μg/ml, NHK, 48 hours. The method, then:
as §1, §2, §3, §4

Experiment [5] has as its system desaturase DES2. The experiment is described as follows: keratinocyte differentiation, real-time RT-PCR of DES2 transcripts. Type of experiment: cell-based, human. The note with it: 1 μg/ml, NHK, 48 hours. The method, then: as §1, §2, §3, §4
Experiment [6] has as its system transglutaminase 1 (TG1). As to the kind of experiment: keratinocyte differentiation, real-time RT-PCR of transglutaminase 1 transcripts. Type of experiment: cell-based, human. To be noted: 1 μg/ml, NHK, 48 hours. The method, then:
as §1, §2, §3, §4

The test system of experiment [7] is Interleukin 8. As to the kind of experiment: release of Interleukin 8 by keratinocytes NHK stimulated with PMA + calcium ionophore A23187 (ELISA). Type of experiment: cell-based, human. To be noted: 3 μg/ml, keratinocytes, PMA + A23187 6 hours. The protocol:
In this study, carried out using 96 well plates, we evaluated the activity of hydroxyl alkine acids on the production of Interleukin 8 produced in the keratinocytes by phorbol ester PMA and calcium ionophore A23187.
A suspension of keratinocytes in supplemented KSFM was divided between 96 well plates (3.10^4 cells/wells) and incubated for 16 hours at 37° C. under an atmosphere of 5% CO2. The keratinocytes were then rinsed with PBS in order to eliminate non adhering cells then exposed to the products to be tested included in non supplemented KSFM (which could interfere with the assay).
The concentration tested in culture was 3 μg/ml. This was retained after a preliminary test to evaluate cytotoxicity (neutral red) and is not cytotoxic.
3 wells were used for each treatment. Cells were preincubated for 60 minutes with the products to be tested then stimulated, in parallel to negative controls without stimulant: Phorbol Myristate Acetate (PMA) 1 μm+Calcium ionophore (A23187) 0.1 μm.
Incubation for 6 hours at 37° C. in a humid air atmosphere containing 5% CO2.
The culture medium for each of the wells was recovered, centrifuged at 3000 rpm and stored at −80° C.
Cytokine assay: IL8 was assayed using the ELISA kit immunoenzyme method (immunotech).
The results are given as percentage activity/stimulated control.
The compounds according to the invention were evaluated in terms of anti-inflammatory activity on the release of Interleukin 8 by human keratinocytes NHK stimulated by phorbol ester PMA+calcium ionophore A23187.
In general terms: An ELISA detects its analyte on a solid surface through an enzyme-linked reagent.

Experiment [8] concerns the target T1, PAR-2 receptors (Homo sapiens, UniProt P55085).
T1 construct: PAR-2 receptors for trypsin present in human keratinocytes from the HaCaT line; endogenous in cells; host or cells: HaCaT human keratinocytes
T1 sequence (P55085 26-397): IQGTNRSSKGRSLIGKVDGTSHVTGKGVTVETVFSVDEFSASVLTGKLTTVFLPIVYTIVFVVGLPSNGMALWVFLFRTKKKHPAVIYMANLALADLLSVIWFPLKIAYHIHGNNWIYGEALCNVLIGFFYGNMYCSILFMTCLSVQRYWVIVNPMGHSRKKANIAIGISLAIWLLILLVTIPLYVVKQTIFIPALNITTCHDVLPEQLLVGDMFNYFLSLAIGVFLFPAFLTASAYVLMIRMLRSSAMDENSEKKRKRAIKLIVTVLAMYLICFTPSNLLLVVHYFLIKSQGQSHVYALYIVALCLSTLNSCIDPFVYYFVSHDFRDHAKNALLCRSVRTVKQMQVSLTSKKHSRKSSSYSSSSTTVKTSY
The experiment is described as follows: calcium flux induced by trypsin stimulation of PAR-2 receptors in HaCaT keratinocytes (Fluo-4/AM). To be noted: trypsin 10 nM. Type of experiment: cell-based. The source says: We therefore considered evaluating anti-PAR-2 activity of hydroxyl acid derivatives of formula I on the influx of intracellular calcium induced after specific stimulation by PAR-2 receptors for trypsin present in human keratinocytes from the HaCaT line.
This technique is based on the use of an esterified fluorescent probe by an AM group which facilitates its penetration by passive diffusion into the cell. The probe used is Fluo-4/AM. Only the de-esterified form bound to the calcium ion is excitable in fluorescence (at 485 nm) and emits at 535 nm.
In vitro, at the cell level, specific stimulation of the PAR-2 receptors by trypsin leads to mobilisation of intra and extracellular calcium detected with the aid of the fluorescent probe.

For `O=C(O)C(F)=CCCCCCCCCCCCCCCCO` (mixture of isomers) [n=14, R=H, Rn=H, R1=F], in experiment [1], the “% membrane lipid protection, Mean” value is on record as 35.30%. Besides, the “Induction Factor vs Control (CaCl2 1.2 mM) FATP4” value in experiment [2] is recorded as 1.0. Moreover, the “Percentage inhibition of the intracellular production of AOS” value in experiment [3] (0.02 ng/ml) is recorded as 6%; in experiment [3] (0.2 ng/ml) it was −17%; in experiment [3] (2 ng/ml) it was −26%; in experiment [3] (20 ng/ml), −42%. In addition, the “Induction Factor vs Control (CaCl2 1.2 mM) ABCG1” value in experiment [4] is listed as 4.0. For the same compound, the “Induction Factor vs Control (CaCl2 1.2 mM) DES2” value in experiment [5] amounted to 2.8. In addition, the “Induction Factor vs Control (CaCl2 1.2 mM) TG1” value in experiment [6] amounted to 1.7.
Regarding `O=C(O)/C=C/CCCCCCO` [n=5, R=H, Rn=H, R1=H, 9-hydroxy-nona-2t-enoic acid], the “Induction Factor vs Control (CaCl2 1.2 mM) FATP4” value in experiment [2] turned out to be 1.0. For the same compound, the “Percentage inhibition of the intracellular production of AOS” value in experiment [3] (0.02 ng/ml) was determined as 56%; in experiment [3] (0.2 ng/ml) it was 47%; in experiment [3] (2 ng/ml), 46%; in experiment [3] (20 ng/ml), 36%. The “Induction Factor vs Control (CaCl2 1.2 mM) ABCG1” value in experiment [4] came to 2.7. For the same compound, the “Induction Factor vs Control (CaCl2 1.2 mM) DES2” value in experiment [5] amounted to 1.8. For the same compound, the “Induction Factor vs Control (CaCl2 1.2 mM) TG1” value in experiment [6] was found to be 1.5.
The term % inhibition denotes the change of the read-out against control, counted positive when it falls. With `O=C(O)/C=C/CCCCCCCCCCCCCCCO` [n=14, R=H, Rn=H, R1=H, 18-hydroxy-octadec-2t-enoic acid], the “% inhibition of IL-8 release” value in experiment [7] is reported as “Non-active”. The “% inhibition” value is listed as −10% in experiment [8] (10 μg/ml), 8% in experiment [8] (30 μg/ml) and 23% in experiment [8] (100 μg/ml). For the same compound, the “% stimulation” value came out at 14.68% in experiment [8] (10 μg/ml), 12.90% in experiment [8] (30 μg/ml) and 11.37% in experiment [8] (100 μg/ml).

The values are drawn from patent US8158811B2, “Unsaturated fatty hydroxy acid derivatives and the dermocosmetologic use thereof” (Pierre Fabre Dermo-Cosmetique, priority 2005, dated 2012).
